For test [1], the system named is Beet Armyworm (Spodoptera exigua) ("BAW"). Put plainly: Bioassay on beet armyworm (BAW), 128-well diet tray assay. It is filed as in vivo. The settings on record: for pest or weed control at 50 µg/cm2: Table ABC (FB), activity rating class, read-out: BAW (Biological Results, Insect species). The method, then:
(§1) Certain molecules disclosed in this document were tested against BAW and CEW using procedures described in the following examples. In the reporting of the results, the “BAW & CL Rating Table” was used (See Table Section). BIOASSAYS ON BAW
Bioassays on BAW were conducted using a 128-well diet tray assay. one to five second instar BAW larvae were placed in each well (3 mL) of the diet tray that had been previously filled with 1 mL of artificial diet to which 50 μg/cm^2 of the test compound (dissolved in 50 μL of 90:10 acetone-water mixture) had been applied (to each of eight wells) and then allowed to dry. Trays were covered with a clear self-adhesive cover and held at 25° C., 14:10 light-dark for five to seven days. Percent mortality was recorded for the larvae in each well; activity in the eight wells was then averaged. The results are indicated in the table entitled “Table ABC: Biological Results” (See Table Section).

Test [2] concerns Cabbage Looper (Trichoplusia ni) ("CL"). Put plainly: Bioassay on cabbage looper (CL), 128-well diet tray assay. It is filed as in vivo. To be noted: for pest or weed control at 50 µg/cm2: Table ABC (FB), activity rating class, read-out: CL (Biological Results, Insect species). The procedure: as §1
Bioassays on CL were conducted using a 128-well diet tray assay. one to five second instar CL larvae were placed in each well (3 mL) of the diet tray that had been previously filled with 1 mL of artificial diet to which 50 μg/cm^2 of the test compound (dissolved in 50 μL of 90:10 acetone-water mixture) had been applied (to each of eight wells) and then allowed to dry. Trays were covered with a clear self-adhesive cover and held at 25° C., 14:10 light-dark for five to seven days. Percent mortality was recorded for the larvae in each well; activity in the eight wells was then averaged. The results are indicated in the table entitled “Table ABC: Biological Results” (See Table Section).

In the case of `CCc1cccc(C)c1N1C(=O)CS/C1=N\C(=O)NCc1cccc(-c2ncn(-c3ccc(OC(F)(F)F)cc3)n2)c1` [FB30, (Z)-1-(3-(2-ethyl-6-methylphenyl)-4-oxothiazolidin-2-ylidene)-3-(3-(1-(4-(trifluoromethoxy)phenyl)-1H-1,2,4-triazol-3-yl)benzyl)urea], the pest or weed control at 50 µg/cm2 in test [1] and in test [2] was 50 to 100% each time.
For `CC(C)c1ccccc1N1C(=O)CS/C1=N\C(=O)NCc1cccc(-c2ncn(-c3ccc(OC(F)(F)F)cc3)n2)c1` [FB31, (Z)-1-(3-(2-isopropylphenyl)-4-oxothiazolidin-2-ylidene)-3-(3-(1-(4-(trifluoromethoxy)phenyl)-1H-1,2,4-triazol-3-yl)benzyl)urea], the pest or weed control at 50 µg/cm2 in test [1] and in test [2] was 50 to 100% throughout.
On to `Cc1ccc(N2C(=O)CS/C2=N\C(=O)NCc2cccc(-c3ncn(-c4ccc(OC(F)(F)F)cc4)n3)c2)c(C(C)C)c1` [FB32, (Z)-1-(3-(2-isopropyl-4-methylphenyl)-4-oxothiazolidin-2-ylidene)-3-(3-(1-(4-(trifluoromethoxy)phenyl)-1H-1,2,4-triazol-3-yl)benzyl)urea], for which the pest or weed control at 50 µg/cm2 in test [1] and in test [2] was 50 to 100% throughout.
Turning to `CC(C)c1cc(F)ccc1N1C(=O)CS/C1=N\C(=O)NCc1cccc(-c2ncn(-c3ccc(OC(F)(F)F)cc3)n2)c1` [FB33, (Z)-1-(3-(4-fluoro-2-isopropylphenyl)-4-oxothiazolidin-2-ylidene)-3-(3-(1-(4-(trifluoromethoxy)phenyl)-1H-1,2,4-triazol-3-yl)benzyl)urea], the pest or weed control at 50 µg/cm2 in test [1] and in test [2] was 50 to 100% in each case.
Turning to `CC(C)c1ccc(Cl)cc1N1C(=O)CS/C1=N\C(=O)NCc1cccc(-c2ncn(-c3ccc(OC(F)(F)F)cc3)n2)c1` [FB35, (Z)-1-(3-(5-chloro-2-isopropylphenyl)-4-oxothiazolidin-2-ylidene)-3-(3-(1-(4-(trifluoromethoxy)phenyl)-1H-1,2,4-triazol-3-yl)benzyl)urea], the pest or weed control at 50 µg/cm2 in test [1] and in test [2] was 50 to 100% throughout.
In the case of `COc1ccc(NC(=S)NC(=O)NCCCCc2cccc(-c3ncn(-c4ccc(OC(F)(F)F)cc4)n3)c2)c(C)c1` [FB36, 1-[(4-methoxy-2-methyl-phenyl)carbamothioyl]-3-[4-[3-[1-[4-(trifluoromethoxy)phenyl]-1H-1,2,4-triazol-3-yl]phenyl]butyl]urea], the values for the pest or weed control at 50 µg/cm2 in test [1] and in test [2] were 0 to 50% and 50 to 100%, respectively.
On the same counts, the results for `CC(C)c1ccc(Cl)cc1NC(=S)NC(=O)NCCCCc1cccc(-c2ncn(-c3ccc(OC(F)(F)F)cc3)n2)c1` [FB37, 1-[(5-chloro-2-isopropyl-phenyl)carbamothioyl]-3-[4-[3-[1-[4-(trifluoromethoxy)phenyl]-1H-1,2,4-triazol-3-yl]phenyl]butyl]urea] are 0 to 50% and 0 to 50%.
On the same counts, the results for `COc1ccc(N2C(=O)CS/C2=N\C(=O)NCCCCc2cccc(-c3ncn(-c4ccc(OC(F)(F)F)cc4)n3)c2)c(C)c1` [FB38, (Z)-1-(3-(4-methoxy-2-methylphenyl)-4-oxothiazolidin-2-ylidene)-3-(4-(3-(1-(4-(trifluoromethoxy)phenyl)-1H-1,2,4-triazol-3-yl)phenyl)butyl)urea] are 0 to 50% and 50 to 100%.
In the same order, the values of `CC(C)c1ccc(Cl)cc1N1C(=O)CS/C1=N\C(=O)NCCCCc1cccc(-c2ncn(-c3ccc(OC(F)(F)F)cc3)n2)c1` [FB39, (Z)-1-(3-(5-chloro-2-isopropylphenyl)-4-oxothiazolidin-2-ylidene)-3-(4-(3-(1-(4-(trifluoromethoxy)phenyl)-1H-1,2,4-triazol-3-yl)phenyl)butyl)urea] are 50 to 100% and 50 to 100%.
For the compound `Cc1ccc(C(C)C)c(N2C(=O)CS/C2=N\C(=O)N[C@H](C)Cc2ccc(-c3ncn(-c4ccc(OC(F)(F)F)cc4)n3)cc2)c1` [FB45, (R,Z)-1-(3-(2-isopropyl-5-methylphenyl)-4-oxothiazolidin-2-ylidene)-3-(1-(4-(1-(4-(trifluoromethoxy)phenyl)-1H-1,2,4-triazol-3-yl)phenyl)propan-2-yl)urea], the pest or weed control at 50 µg/cm2 in test [1] and in test [2] was 50 to 100% in each case.
Consider `CC(C)c1ccc(Cl)cc1N1C(=O)CS/C1=N\C(=O)NCCc1ccc(-c2ncn(-c3ccc(C(F)(F)F)cc3)n2)cc1` [FB50, (Z)-1-(3-(5-chloro-2-isopropylphenyl)-4-oxothiazolidin-2-ylidene)-3-(4-(1-(4-(trifluoromethyl)phenyl)-1H-1,2,4-triazol-3-yl)phenethyl)urea], for which the pest or weed control at 50 µg/cm2 in test [1] and in test [2] was 50 to 100% throughout.
With `Cc1ccc(C(C)C)c(N2C(=O)CS/C2=N\C(=O)NC(C)(C)Cc2ccc(-c3ncn(-c4ccc(OC(F)(F)F)cc4)n3)cc2)c1` [FB52, (Z)-1-(3-(2-isopropyl-5-methylphenyl)-4-oxothiazolidin-2-ylidene)-3-(2-methyl-1-(4-(1-(4-(trifluoromethoxy)phenyl)-1H-1,2,4-triazol-3-yl)phenyl)propan-2-yl)urea], the pest or weed control at 50 µg/cm2 in test [1] and in test [2] was 50 to 100% throughout.
On to `CCc1ccc(C)cc1N1/C(=N/C(=O)NCCc2ccc(-c3ncn(-c4ccc(OC(F)(F)F)cc4)n3)cc2)SCC1C` (centres unmarked) [FB55, (Z)-1-(3-(2-ethyl-5-methylphenyl)-4-methylthiazolidin-2-ylidene)-3-(4-(1-(4-(trifluoromethoxy)phenyl)-1H-1,2,4-triazol-3-yl)phenethyl)urea], for which the pest or weed control at 50 µg/cm2 in test [1] and in test [2] was 50 to 100% throughout.
`Cc1ccc(C(C)C)c(N2C(=O)C(F)S/C2=N\C(=O)NCCc2ccc(-c3ncn(-c4ccc(OC(F)(F)F)cc4)n3)cc2)c1` (centres unmarked) [FB64, (Z)-1-(5-fluoro-3-(2-isopropyl-5-methylphenyl)-4-oxothiazolidin-2-ylidene)-3-(4-(1-(4-(trifluoromethoxy)phenyl)-1H-1,2,4-triazol-3-yl)phenethyl)urea]: the pest or weed control at 50 µg/cm2 in test [1] and in test [2] was 50 to 100% in each case.
Take `CCS/C(=N\C(=O)NCCc1ccc(-c2ncn(-c3ccc(OC(F)(F)F)cc3)n2)cc1)Nc1cc(C)ccc1C(C)C` [FB66, (Z)-ethyl N-(2-isopropyl-5-methylphenyl)-N′-((4-(1-(4-(trifluoromethoxy)phenyl)-1H-1,2,4-triazol-3-yl)phenethyl)carbamoyl)carbamimidothioate]: the pest or weed control at 50 µg/cm2 in test [1] and in test [2] was 50 to 100% each time.
`Cc1ccc(C(C)C)c(N2C(=O)C(C)(C)S/C2=N\C(=O)NCCc2ccc(-c3ncn(-c4ccc(OC(F)(F)F)cc4)n3)cc2)c1` [FB68, (Z)-1-(3-(2-isopropyl-5-methylphenyl)-5,5-dimethyl-4-oxothiazolidin-2-ylidene)-3-(4-(1-(4-(trifluoromethoxy)phenyl)-1H-1,2,4-triazol-3-yl)phenethyl)urea]: the pest or weed control at 50 µg/cm2 in test [1] and in test [2] was 50 to 100% throughout.
Regarding `Cc1ccc(C(C)C)c(N2C(=O)C3(CC3)S/C2=N\C(=O)NCCc2ccc(-c3ncn(-c4ccc(OC(F)(F)F)cc4)n3)cc2)c1` [FB69, (Z)-1-(6-(2-isopropyl-5-methylphenyl)-7-oxo-4-thia-6-azaspiro[2.4]heptan-5-ylidene)-3-(4-(1-(4-(trifluoromethoxy)phenyl)-1H-1,2,4-triazol-3-yl)phenethyl)urea], the pest or weed control at 50 µg/cm2 in test [1] and in test [2] was 50 to 100% throughout.
Regarding `Cc1ccc(C(C)C)c(N2C(=O)C(C(C)(C)O)S/C2=N\C(=O)NCCc2ccc(-c3ncn(-c4ccc(OC(F)(F)F)cc4)n3)cc2)c1` (centres unmarked) [FB72, (Z)-1-(5-(2-hydroxypropan-2-yl)-3-(2-isopropyl-5-methylphenyl)-4-oxothiazolidin-2-ylidene)-3-(4-(1-(4-(trifluoromethoxy)phenyl)-1H-1,2,4-triazol-3-yl)phenethyl)urea], the pest or weed control at 50 µg/cm2 in test [1] and in test [2] was 50 to 100% throughout.
Consider `Cc1ccccc1N1C(=O)CS/C1=N\C(=O)NCc1ccc(-c2ncn(-c3ccc(OC(F)(F)F)cc3)n2)cc1` [P1, (Z)-1-(4-oxo-3-(o-tolyl)thiazolidin-2-ylidene)-3-(4-(1-(4-(trifluoromethoxy)phenyl)-1H-1,2,4-triazol-3-yl)benzyl)urea], for which the mortality at 50 µg/cm2 in test [1] (168 h, 50 μg/cm^2 on artificial diet, second instar BAW larvae, 25° C., five to seven days, average of eight wells, read-out: BAW % Control (or Mortality) rating) fell in the range of 50 to 100%; in test [2] (168 h, 50 μg/cm^2 on artificial diet, second instar CL larvae, 25° C., five to seven days, average of eight wells, read-out: CL % Control (or Mortality) rating), 50 to 100%.

By mortality is commonly meant the share of the test organisms that died.

The record behind these values is US9783532B2, “Molecules having certain pesticidal utilities, and intermediates, compositions, and processes related thereto” (Dow AgroSciences LLC, priority 2013, dated 2017).
